Row | melting point | SMILES
1 | 145 °C (dec.) | CNC(=O)c1cc(-c2ccccc2)c2c(n1)OCCN(Cc1cc(C(F)(F)F)cc(C(F)(F)F)c1)C2=O [Example 58, 4-[3,5-Bis(trifluoromethyl)benzyl]-N-methyl-2,3,4,5-tetrahydro-5-oxo-6-phenylpyrido[3,2-f][1,4]oxazepine-8-carboxamide]
2 | 235 to 236 °C | CN(C)C(=O)c1cc(-c2ccccc2)c2c(n1)OCCN(Cc1cc(C(F)(F)F)cc(C(F)(F)F)c1)C2=O [Example 59, 4-[3,5-Bis(trifluoromethyl)benzyl]-N,N-dimethyl-2,3,4,5-tetrahydro-5-oxo-6-phenylpyrido[3,2-f][1,4]oxazepine-8-carboxamide]
3 | 194 to 196 °C | CCCCNC(=O)c1cc(-c2ccccc2)c2c(n1)OCCN(Cc1cc(C(F)(F)F)cc(C(F)(F)F)c1)C2=O [Example 60, 4-[3,5-Bis(trifluoromethyl)benzyl]-N-n-butyl-2,3,4,5-tetrahydro-5-oxo-6-phenylpyrido[3,2-f][1,4]oxazepine-8-carboxamide]
4 | 218 to 220 °C | O=C(c1cc(-c2ccccc2)c2c(n1)OCCN(Cc1cc(C(F)(F)F)cc(C(F)(F)F)c1)C2=O)N1CCCCC1 [Example 61, 4-[3,5-Bis(trifluoromethyl)benzyl]-2,3,4,5-tetrahydro-5-oxo-6-phenyl-8-piperidinocarbonylpyrido[3,2-f][1,4]oxazepine]
5 | 177 to 179 °C | COc1cc(CN2CCOc3nccc(-c4ccccc4)c3C2=O)cc(OC)c1OC [Example 64, 2,3,4,5-Tetrahydro-5-oxo-6-phenyl-4-(3,4,5-trimethoxybenzyl)pyrido[3,2-f][1,4]oxazepine]
6 | 189 to 192 °C | O=C1c2c(-c3ccccc3)ccnc2OCCN1Cc1ccc(Cl)c(Cl)c1 [Example 65, 4-(3,4-Dichlorobenzyl)-2,3,4,5-tetrahydro-5-oxo-6-phenylpyrido[3,2-f][1,4]oxazepine]
7 | 175 to 176 °C | COc1ccc(CN2CCOc3nccc(-c4ccccc4)c3C2=O)cc1OC [Example 66, 4-(3,4-Dimethoxybenzyl)-2,3,4,5-tetrahydro-5-oxo-6-phenylpyrido[3,2-f][1,4]oxazepine]
8 | 209 to 211 °C | O=C1c2c(-c3ccccc3)ccnc2OCCN1Cc1ccccc1 [Example 67, 4-Benzyl-2,3,4,5-tetrahydro-5-oxo-6-phenylpyrido[3,2-f][1,4]oxazepine]
9 | 139 to 141 °C | C[C@@H]1COc2nccc(-c3ccccc3)c2C(=O)N(Cc2ccccc2)C1 [Example 69, (S)-5-Benzyl-2,3,4,5-tetrahydro-3-methyl-6-oxo-7-phenyl-6H-pyrido[2,3-b][1,5]oxazocine]
10 | 139 to 140 °C | C[C@H]1COc2nccc(-c3ccccc3)c2C(=O)N(Cc2ccccc2)C1 [Example 70, (R)-5-Benzyl-2,3,4,5-tetrahydro-3-methyl-6-oxo-7-phenyl-6H-pyrido[2,3-b][1,5]oxazocine]
11 | 142 to 143 °C | C[C@@H]1COc2nccc(-c3ccccc3)c2C(=O)N(Cc2cc(C(F)(F)F)cc(C(F)(F)F)c2)C1 [Example 71, (S)-5-[3,5-Bis(trifluoromethyl)benzyl]-2,3,4,5-tetrahydro-3-methyl-6-oxo-7-phenyl-6H-pyrido[2,3-b][1,5]oxazocine]
12 | 142 to 143 °C | C[C@H]1COc2nccc(-c3ccccc3)c2C(=O)N(Cc2cc(C(F)(F)F)cc(C(F)(F)F)c2)C1 [Example 72, (R)-5-[3,5-Bis(trifluoromethyl)benzyl]-2,3,4,5-tetrahydro-3-methyl-6-oxo-7-phenyl-6H-pyrido[2,3-b][1,5]oxazocine]
13 | 203 to 204 °C | Cc1ccc(-c2ccnc3c2C(=O)N(Cc2ccccc2)CCO3)cc1 [Example 79, 4-Benzyl-2,3,4,5-tetrahydro-5-oxo-6-(4-methylphenyl)pyrido(3,2-f][1,4]oxazepine]
14 | 212 to 213 °C | Cc1ccc(-c2ccnc3c2C(=O)N(Cc2cc(C(F)(F)F)cc(C(F)(F)F)c2)CCO3)cc1 [Example 80, 4-[3,5-Bis(trifluoromethyl)benzyl]2,3,4,5-tetrahydro-5-oxo-6-(4-methylphenyl)pyrido[3,2-f][1,4]oxazepine]
15 | 148 to 149 °C | Cc1ccc(-c2ccnc3c2C(=O)N(Cc2ccccc2)C[C@H](C)CO3)cc1 [Example 81, (S)-5-Benzyl-2,3,4,5-tetrahydro-3-methyl-7-(4-methylphenyl)-6-oxo-6H-pyrido[2,3-b][1,5]oxazocine]
16 | 159 to 160 °C | Cc1ccc(-c2ccnc3c2C(=O)N(Cc2cc(C(F)(F)F)cc(C(F)(F)F)c2)C[C@H](C)CO3)cc1 [Example 82, (S)-5-[3,5-Bis(trifluoromethyl)benzyl]2,3,4,5-tetrahydro-3-methyl-7-(4-methylphenyl)-6-oxo-6H-pyrido[2,3-b][1,5]oxazocine]

The next lines start with the molecule.

Row | SMILES | melting point
17 | O=C1c2c(-c3ccccc3)cc(CCl)nc2OCCN1Cc1cc(C(F)(F)F)cc(C(F)(F)F)c1 [Example 39, 4-[3,5-Bis(trifluoromethyl)benzyl]-8-chloromethyl-2,3,4,5-tetrahydro-5-oxo-6-phenylpyrido[3,2-f][1,4]oxazepine] | 183 to 184 °C
18 | COCc1cc(-c2ccccc2)c2c(n1)OCCN(Cc1cc(C(F)(F)F)cc(C(F)(F)F)c1)C2=O [Example 40, 4-[3,5-Bis(trifluoromethyl)benzyl]-2,3,4,5-tetrahydro-8-methoxymethyl-5-oxo-6-phenylpyrido[3,2-f][1,4]oxazepine] | 139 to 140 °C
19 | CSCc1cc(-c2ccccc2)c2c(n1)OCCN(Cc1cc(C(F)(F)F)cc(C(F)(F)F)c1)C2=O [Example 42, 4-[3,5-Bis(trifluoromethyl)benzyl]-2,3,4,5-tetrahydro-8-methylthiomethyl-5-oxo-6-phenylpyrido[3,2-f][1,4]oxazepine] | 165 to 166 °C
20 | NCc1cc(-c2ccccc2)c2c(n1)OCCN(Cc1cc(C(F)(F)F)cc(C(F)(F)F)c1)C2=O [Example 43, 8-Aminomethyl-4-[3,5-bis(trifluoromethyl)benzyl]-2,3,4,5-tetrahydro-5-oxo-6-phenylpyrido[3,2-f][1,4]oxazepine] | 188 to 191 °C
21 | CNCc1cc(-c2ccccc2)c2c(n1)OCCN(Cc1cc(C(F)(F)F)cc(C(F)(F)F)c1)C2=O [Example 44, 4-[3,5-Bis(trifluoromethyl)benzyl]-2,3,4,5-tetrahydro-8-methylaminomethyl-5-oxo-6-phenylpyrido[3,2-f][1,4]oxazepine] | 152 to 154 °C
22 | CN(C)Cc1cc(-c2ccccc2)c2c(n1)OCCN(Cc1cc(C(F)(F)F)cc(C(F)(F)F)c1)C2=O [Example 45, 4-[3,5-Bis(trifluoromethyl)benzyl]-8-dimethylaminomethyl-2,3,4,5-tetrahydro-5-oxo-6-phenylpyrido[3,2-f][1,4]oxazepine] | 186 to 188 °C
23 | O=C1c2c(-c3ccccc3)cc(CNC3CC3)nc2OCCN1Cc1cc(C(F)(F)F)cc(C(F)(F)F)c1 [Example 46, 4-[3,5-Bis(trifluoromethyl)benzyl]-8-cyclopropylaminomethyl-2,3,4,5-tetrahydro-5-oxo-6-phenylpyrido[3,2-f][1,4]oxazepine] | 129 to 131 °C
24 | CC(=O)NCc1cc(-c2ccccc2)c2c(n1)OCCN(Cc1cc(C(F)(F)F)cc(C(F)(F)F)c1)C2=O [Example 48, 8-Acetylaminomethyl-4-[3,5-bis(trifluoromethyl)benzyl]-2,3,4,5-tetrahydro-5-oxo-6-phenylpyrido[3,2-f][1,4]oxazepine] | 223 to 224 °C
25 | CS(=O)(=O)NCc1cc(-c2ccccc2)c2c(n1)OCCN(Cc1cc(C(F)(F)F)cc(C(F)(F)F)c1)C2=O [Example 49, 4-[3,5-Bis(trifluoromethyl)benzyl]-2,3,4,5-tetrahydro-8-methanesulfonylaminomethyl-5-oxo-6-phenylpyrido[3,2-f][1,4]oxazepine] | 194 to 195 °C
26 | Cc1cnc2c(c1-c1ccccc1)C(=O)N(Cc1cc(C(F)(F)F)cc(C(F)(F)F)c1)CCN(C)C2=O [Example 50, 6-[3,5-Bis(trifluoromethyl)benzyl]-5,6,7,8,9,10-hexahydro-3,9-dimethyl-5,10-dioxo-4-phenylpyrido(2,3-f][1,4]diazocine] | 203 to 205 °C
27 | CN1CCN(Cc2cc(C(F)(F)F)cc(C(F)(F)F)c2)C(=O)c2c(-c3ccccc3)ccnc2C1=O [Example 51, 6-[3,5-Bis(trifluoromethyl)benzyl]-5,6,7,8,9,10-hexahydro-9-methyl-5,10-dioxo-4-phenylpyrido[2,3-f][1,4]diazocine] | 167 to 169 °C
28 | Cc1cnc2c(c1-c1ccccc1)C(=O)N(Cc1ccccc1)CCN(C)C2=O [Example 52, 6-Benzyl-5,6,7,8,9,10-hexahydro-3,9-dimethyl-5,10-dioxo-4-phenylpyrido[2,3-f][1,4]diazocine] | 183 to 184 °C
29 | CCN1CCN(Cc2cc(C(F)(F)F)cc(C(F)(F)F)c2)C(=O)c2c(ncc(C)c2-c2ccccc2)C1=O [Example 53, 6-[3,5-Bis(trifluoromethyl)benzyl]-9-ethyl-5,6,7,8,9,10-hexahydro-3-methyl-5,10-dioxo-4-phenylpyrido[2,3-f][1,4]diazocine] | 228 to 229 °C
30 | Cc1cnc2c(c1-c1ccccc1)C(=O)N(Cc1cc(C(F)(F)F)cc(C(F)(F)F)c1)CCCN(C)C2=O [Example 54, 6-[3,5-Bis(trifluoromethyl)benzyl]-6,7,8,9,10,11-hexahydro-3,10-dimethyl-5,11-dioxo-4-phenyl-5H-pyrido[2,3-g][1,5]diazonine] | 247 to 249 °C

— patent US6489315B1, “Cyclic compounds, their production and use” (Takeda Chemical Industries, Ltd., priority 1995, dated 2002)
